# Measured values from patent US20220378928A1, “A Camptothecin Drug and Its Antibody Conjugate Thereof” (priority 2020, published 2022).
# Where two headings read alike, the source gives them in different places.
# What was measured:
# Experiment in all cases: Camptothecin drug cellular activity test (MTS cell proliferation)
# Format in all cases: cell-based, human
# [1] = test system: A431; details: read-out: Cell Viability, A431
# Procedure: (§1) The cytotoxic activity of camptothecin drugs was determined by the following experimental process: Camptothecin drugs were added to cell culture media that grows human tumors cells that express A431, Fadu, Bxpc-3 (EGFR-positive cells) and U87-MG, SW620 (negative control cells). Cell survival rates were measured after the cells were cultured for 72 hours. Cell-based in vitro experiments are used to determine cell survival rate, cytotoxicity, and programmed cell death induced by the camptothecin drug of the present application.
# (§2) The in vitro efficacy of the camptothecin drugs was determined by cell proliferation test. CellTiter 96® Aqueous One Solution Cell Proliferation Assay is commercially available (Promega Corp., Madison, Wis.). CellTiter 96® AQueous One Solution Cell Proliferation Assay(a) is a colorimetric method to detect the number of living cells in cell proliferation and cytotoxicity experiments. This reagent contains a novel tetrazolium compound [3-(4, 5-dimethylthiazol-2-yl)-5-(3-carboxymethoxyphenyl)-2-(4-sulfophenyl)-2H-tetrazolium, inner salt; MTS] and an electronic coupling agent (phenazine ethosulfate; PES). PES has enhanced chemical stability, which allows it to be mixed with MTS to form a stable solution. This convenient “single solution” mode is an improvement on the basis of the first generation CellTiter 96*AQueous Assay. The electronic coupling agent PMS and MTS solution used in the CellTiter 96*AQueous Assay are provided separately. MTS (Owen's reagent) is reduced by cell organisms into a colored formazan product (Illustration 1), which can be directly dissolved in the culture medium.
# (§3) The conversion in all likelihood is completed under the action of NADPH or NADH produced by dehydrogenases in metabolically active cells. When testing, just add a small amount of CellTiter 96® AQueous One Solution Reagent directly to the culture plate well, incubate for 1-4 hours, and then read the absorbance value at 490 nm with a microplate reader.
# (§4) The amount of formazan detected at 490 nm is directly proportional to the number of viable cells in culture. Since the formazan product of MTS is soluble in tissue culture medium, CellTiter 96® AQueous One Solution Assay has fewer steps than MTT or INT methods.
# (§5) In the present application, A431, Fadu, Bxpc-3 (EGFR positive expressing cells) and U87-MG, SW620 (negative control cells) are used as the research system for in vitro drug efficacy detection. In a 96-well plate, use an appropriate cell density for plating, and after 24 hours, add camptothecin. After 24 hours, dilute the camptothecin drug with the test medium (1 uM start, 5-fold dilution, 9 concentrations, add test medium in the tenth column as a blank control), and add the diluted camptothecin drug to the corresponding cell wells. The cell wells were then shaken with a microplate shaker (model: MX100-4A) for 3 minutes at a shaking speed of 550 rpm/min. After shaking, they were placed in a carbon dioxide incubator and incubated for 3 days. After 3 days, add 20 uL MTS (Promega, G3581) to each well for 2 hours, and the microplate reader (Molecular Device, model: SpectraMAX190) reads at […]. By detecting the activity of dehydrogenase in mitochondria, the inhibitory effect of camptothecin drugs on cell proliferation was evaluated.
# [2] = test system: BXPC-3; details: read-out: Cell Viability, BXPC-3
# Procedure: as §1, §2, §3, §4, §5
# [3] = test system: Fadu; details: read-out: Cell Viability, Fadu
# Procedure: as §1, §2, §3, §4, §5
# [4] = test system: SW620; details: read-out: Cell Viability, SW620
# Procedure: as §1, §2, §3, §4, §5
# [5] = test system: U87-MG; details: read-out: Cell Viability, U87-MG
# Procedure: as §1, §2, §3, §4, §5
# [6] = Homo sapiens, A-431, 72 h, A431, EGFR-positive cells, 3 days incubation, MTS
# [7] = Homo sapiens, 72 h, BXPC-3, EGFR-positive cells, 3 days incubation, MTS
# [8] = Homo sapiens, 72 h, Fadu, EGFR-positive cells, 3 days incubation, MTS
# [9] = Homo sapiens, SW-620, 72 h, SW620, negative control cells, 3 days incubation, MTS
# [10] = Homo sapiens, U-87 MG, 72 h, U87-MG, negative control cells, 3 days incubation, MTS
Structure (SMILES),"IC50 [1, 6]","IC50 [2, 7]","IC50 [3, 8]","IC50 [4, 9]","IC50 [5, 10]","IC50 ([1]; Homo sapiens, A-431, 72 h)","IC50 ([2]; Homo sapiens, BXPC-3, 72 h)","IC50 ([3]; Homo sapiens, FaDu, 72 h)","IC50 ([4]; Homo sapiens, SW-620, 72 h)","IC50 ([5]; Homo sapiens, U-87 MG, 72 h)",further results
CC[C@@]1(O)C(=O)OCc2c1cc1n(c2=O)Cc2c-1nc1cc(F)c(C)c3c1c2[C@@H](NC(=O)[C@H](C)O)CC3 [Compound 2],40.9 nM,38.8 nM,11.1 nM,10.4 nM,7.4 nM,,,,,,
CC[C@@]1(O)C(=O)OCc2c1cc1n(c2=O)Cc2c-1nc1cc(F)c(C)c3c1c2[C@H](NC(=O)[C@H](O)C(F)(F)F)CC3 [Compound 12],15.5 nM,1.6 nM,0.002 nM,0.06 nM,0.06 nM,,,,,,
CC[C@@]1(O)C(=O)OCc2c1cc1n(c2=O)Cc2c-1nc1cc(F)c(C)c3c1c2[C@H](NC(=O)[C@@H](O)C(F)(F)F)CC3 [Compound 13],6.37 nM,40 nM,0.06 nM,1.06 nM,0.32 to 1.6 nM,,,,,,
CC[C@@]1(O)C(=O)OCc2c1cc1n(c2=O)Cc2c-1nc1cc(F)c(C)c3c1c2[C@@H](NC(=O)C1(O)CCCC1)CC3 [Compound 25],,,,,,11.7 nM,15.8 nM,41 nM,1.5 nM,10.4 nM,
CC[C@@]1(O)C(=O)OCc2c1cc1n(c2=O)Cc2c-1nc1cc(F)c(C)c3c1c2[C@@H](NC(=O)C(O)c1ccccc1)CC3 (stereo partly drawn) [Compound 28],,,,,,5.12 nM,81 nM,14.2 nM,11.9 nM,18.3 nM,
CC[C@@]1(O)C(=O)OCc2c1cc1n(c2=O)Cc2c-1nc1cc(F)c(C)c3c1c2[C@@H](NC(=O)[C@H](O)c1cc(F)cc(F)c1)CC3 [Compound 29],,,,,,19.6 nM,90.1 nM,41.3 nM,2.15 nM,23.6 nM,
CC[C@@]1(O)C(=O)OCc2c1cc1n(c2=O)Cc2c-1nc1cc(F)c(C)c3c1c2[C@@H](NC(=O)[C@H](O)c1ccc2c(c1)OCO2)CC3 [Compound 30],,,,,,19.9 nM,34.2 nM,19.2 nM,2.25 nM,29.9 nM,
CC[C@H](O)C(=O)N[C@H]1CCc2c(C)c(F)cc3nc4c(c1c23)Cn1c-4cc2c(c1=O)COC(=O)[C@]2(O)CC [Compound 31],,,,,,14.8 nM,55.4 nM,17.5 nM,17.5 nM,10.8 nM,
"CCc1c2c(nc3ccc(O)cc13)-c1cc3c(c(=O)n1C2)COC(=O)[C@]3(O)CC [SN38, reference compound]",,,,,,,,,,,"IC50 ([1]; A431, EGFR-positive cells, 3 days incubation, MTS): 13.6 nM; IC50 ([2]; BXPC-3, EGFR-positive cells, 3 days incubation, MTS): 120 nM; IC50 ([3]; Fadu, EGFR-positive cells, 3 days incubation, MTS): 42.1 nM; IC50 ([4]; SW620, negative control cells, 3 days incubation, MTS): 3.28 nM; IC50 ([5]; U87-MG, negative control cells, 3 days incubation, MTS): 15.7 nM"
